Measurements: publication PMC6973020, “Quinoline‐Conjugated Ruthenacarboranes: Toward Hybrid Drugs with a Dual Mode of Action” (Chemmedchem, 2019)

Assays:
[1] = Ester hydrolysis in PBS/DMSO at pH 7.4 (time‐resolved UV‐vis); type: physicochemical; conditions: PBS/DMSO (1 vol%), 20 μM
Text: Following our recent investigations on the self‐assembly behavior of ruthenacarborane complexes in aqueous solutions at physiologic pH,9, 10 the behavior of free acid 3 and ester 4 in aqueous solution was studied via UV‐vis spectroscopy and Nanoparticle Tracking Analysis (NTA) in phosphate‐buffered saline (PBS)/DMSO mixtures (pH 7.4). UV‐vis spectroscopy is a useful tool to follow the ester hydrolysis over time, when a UV‐(vis)‐active chromophore is present (in the case of 4, the quinoline ring). Experiments were carried out at room temperature (23 and 25 °C, for UV‐vis and NTA, respectively), to simulate the conditions of the working solutions used for cell cultures, and at 37 °C (UV‐vis), to simulate the conditions of incubation of cells.
UV‐vis spectroscopy. Stock solutions of 3, 4 and 8‐hydroxyquinoline (8‐HQ) in distilled DMSO were freshly prepared before use ([3]=2.11 mM; [4]=6.56 mM; [8‐HQ]=25.76 mM). An aliquot of the DMSO stock solution of 3, 4 or 8‐HQ was added to 3 mL PBS solution, so that the final concentration was 20 μM. DMSO content was adjusted to 1 vol % (considering the amount of DMSO from the stock solutions) before addition of the ruthenacarborane, in all samples. Time‐resolved UV‐vis spectra of 4 were measured, over a period of 26 h at room temperature (23±1 °C) and at 37±0.3 °C to follow hydrolysis of the ester bond of 4 at physiologic pH (7.4). PBS/DMSO solutions of 3 and 8‐HQ were also measured, as references. All measurements were corrected by subtracting the blank (PBS+1 vol % DMSO). Experiments were run in duplicate.

MCF‐7 cells [2] = assay: Sideward Scatter (SSC, cell granularity), MCF‐7; type: cell-based, human; conditions: MCF‐7, 20 μM of 4, 72 h
Method: Flow cytometry. For gaining better insights into the mechanisms of action of the ruthenium complexes, MCF‐7 and LN229 cells incubated with an IC50 dose of 3 or 4, were analyzed via flow cytometry. Several staining protocols were carried out in parallel, in independent experiments: i) AnnV/PI for the detection of apoptotic cell death, ii) AO for the detection of acidic vacuoles, iii) ApoStat for checking caspase activation, iv) CFSE for detecting interference with cellular proliferation, and v) DAPI for the detection of morphological signs of apoptosis. Untreated cells or cells treated only with BSA (control) were also measured, as reference for BSA‐free and BSA‐containing drug formulations, respectively. […] Channels FL1 (green emission), FL2 (orange emission) and/or FL3 (dark red emission) were used for fluorescence detection, according to the specific staining agent. Sideward Scatter (SSC) for MCF‐7 cells treated with 4 or BSA−4 was also analyzed, with respect to the control, for detection of shifts of cell granularity. […]
Figure S16. […] Respective controls, i.e. untreated cells or cells treated only with BSA, were also measured for comparison. […]
Figure S17. […] Respective controls, i.e. untreated cells or cells treated only with BSA, were also measured for comparison.
Sideward Scatter is proportional to cell granularity and was determined via flow cytometry. […]

MCF‐7 cells [3] = assay: CV viability of MCF‐7 exposed to 3 together with autophagy inhibitors; type: cell-based, human; conditions: MCF‐7, 3 together with CQ or 3‐MA (0.5 mM), 72 h, CV assay
Method: Colorimetric assays for cellular viability. […] Cells were then washed with tap water, dried in air, and the CV dye was dissolved in 33 % (w/v) acetic acid solution. […] The dye was then discarded, and the formed formazan (purple) was dissolved in DMSO. The absorbance was measured with an automated microplate reader at λmax 540 nm, with the reference λmax 670 nm. Untreated cells or cells treated only with BSA (control) were also measured, as reference for BSA‐free and BSA‐containing drug formulations, respectively. […] Cell viability is expressed as percentage (%) relative to control (untreated cultures).58 Experiments were run in three independent replicates. […] Non‐linear regression analyses of the obtained results was done using GraphPad Prism software to calculate IC50 values. page 17: Figure S15. […] MA, 0.5 mM) for 72 h, from CV assay. Data are expressed as indicated above for Figure S11. * indicates statistically significant (p < 0.05) values, with respect to the control, # with respect to cells treated with 3. S16 (1 picture or pasted object on this page, not shown here)

Substance | time after which hydrolysis is pronounced ([1]; pH 7.4, 23 °C) [h] | time to complete hydrolysis of the ester bond ([1]; pH 7.4, 23 °C) [h] | time to complete hydrolysis of the ester bond ([1]; pH 7.4, 37 °C) [h] | cell granularity (SSC) (MCF‐7 cells [2]) | cell viability on co‐treatment with an inhibitor of autophagy (MCF‐7 cells [3])
closo ‐[3‐(η^6‐p‐Cymene)‐1‐(quinolin‐8‐yl‐acetate)‐3,1,2‐RuC2B9H10] [Compound 4] | 5 | 23 | 2.5 | enhanced granularity | 
closo‐ [Compound 3, closo‐ [3‐(η^6‐p‐Cymene)‐1‐(CH2COOH)‐3,1,2‐RuC2B9H10]] |  |  |  |  | restoration of cellular viability
